Laboratory results from ChEMBL document CHEMBL4033703, “Novel delta opioid receptor agonists with oxazatricyclodecane structure showing potent agonistic activities” (Bioorg Med Chem Lett, 2017).

Experiments:
[1] = target: T1, Kappa-type opioid receptor (Homo sapiens, UniProt P41145); test: Agonist activity at human kappa opioid receptor expressed in CHO cells assessed as inhibition of forskolin-induced cAMP accumulation after 30 mins by Eu-cAMP tracer based TR-FRET assay relative to U-69,593; type: functional, cell-based
[2] = target: T2, Delta-type opioid receptor (Homo sapiens, UniProt P41143); test: Agonist activity at human delta opioid receptor expressed in CHO cells assessed as inhibition of forskolin-induced cAMP accumulation after 30 mins by Eu-cAMP tracer based TR-FRET assay relative to SNC80; type: functional, cell-based
Mu-type opioid receptor [3] = target: Mu-type opioid receptor (Mus musculus, UniProt P42866); test: Displacement of [3H]DAMGO from mu opioid receptor in mouse whole brain without cerebellum membrane
[4] = target: T1, Kappa-type opioid receptor; test: Agonist activity at human kappa opioid receptor expressed in CHO cells assessed as inhibition of forskolin-induced cAMP accumulation after 30 mins by Eu-cAMP tracer based TR-FRET assay; type: functional, cell-based
Mus musculus = species on record: Mus musculus; test: Selectivity ratio of Ki for mu opioid receptor in mouse whole brain without cerebellum to Ki for delta opioid receptor in mouse whole brain without cerebellum
Mu-type opioid receptor [5] = target: T3, Mu-type opioid receptor (Homo sapiens, UniProt P35372); test: Agonist activity at human mu opioid receptor expressed in CHO cells assessed as inhibition of forskolin-induced cAMP accumulation after 30 mins by Eu-cAMP tracer based TR-FRET assay; type: functional, cell-based
Mu-type opioid receptor [6] = target: T3, Mu-type opioid receptor; test: Agonist activity at human mu opioid receptor expressed in CHO cells assessed as inhibition of forskolin-induced cAMP accumulation after 30 mins by Eu-cAMP tracer based TR-FRET assay relative to DAMGO; type: functional, cell-based
[7] = target: Kappa-type opioid receptor (Cavia porcellus, UniProt P41144); test: Displacement of [3H]U-69,593 from kappa opioid receptor in guinea pig cerebellum membrane; type: cell membranes
[8] = Selectivity ratio of Ki for kappa opioid receptor in guinea pig cerebellum membrane to Ki for delta opioid receptor in mouse whole brain without cerebellum; type: cell membranes
[9] = target: Delta-type opioid receptor (Mus musculus, UniProt P32300); test: Displacement of [3H]DPDPE from delta opioid receptor in mouse whole brain without cerebellum membrane
[10] = target: T2, Delta-type opioid receptor; test: Agonist activity at human delta opioid receptor expressed in CHO cells assessed as inhibition of forskolin-induced cAMP accumulation after 30 mins by Eu-cAMP tracer based TR-FRET assay; type: functional, cell-based
Mu-type opioid receptor [11] = target: T3, Mu-type opioid receptor; test: Agonist activity at human mu opioid receptor expressed in CHO cells assessed as inhibition of forskolin-induced cAMP accumulation at 10 uM after 30 mins by Eu-cAMP tracer based TR-FRET assay relative to DAMGO; type: functional, cell-based
[12] = target: T1, Kappa-type opioid receptor; test: Agonist activity at human kappa opioid receptor expressed in CHO cells assessed as inhibition of forskolin-induced cAMP accumulation at 10 uM after 30 mins by Eu-cAMP tracer based TR-FRET assay relative to U-69,593; type: functional, cell-based
[13] = target: T2, Delta-type opioid receptor; test: Displacement of [3H]DPDPE from human delta opioid receptor expressed in CHO cells; type: cell-based
[14] = target: T1, Kappa-type opioid receptor; test: Displacement of [3H]U-69,593 from human kappa opioid receptor expressed in CHO cells; type: cell-based
Mu-type opioid receptor [15] = target: T3, Mu-type opioid receptor; test: Displacement of [3H]DAMGO from human mu opioid receptor expressed in CHO cells; type: cell-based

Kappa-type opioid receptor (Cavia porcellus, UniProt P41144), sequence (P41144 whole entry): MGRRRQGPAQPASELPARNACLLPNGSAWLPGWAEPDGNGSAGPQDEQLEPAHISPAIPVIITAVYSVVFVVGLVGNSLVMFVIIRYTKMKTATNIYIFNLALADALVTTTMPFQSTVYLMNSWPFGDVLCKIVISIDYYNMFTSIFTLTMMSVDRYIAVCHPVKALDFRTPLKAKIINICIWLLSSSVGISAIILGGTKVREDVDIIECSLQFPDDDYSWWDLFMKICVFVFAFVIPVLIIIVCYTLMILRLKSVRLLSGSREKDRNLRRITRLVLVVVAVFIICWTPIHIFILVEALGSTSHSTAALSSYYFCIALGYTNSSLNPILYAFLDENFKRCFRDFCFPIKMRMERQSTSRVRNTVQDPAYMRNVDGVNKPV
Mu-type opioid receptor (Mus musculus, UniProt P42866), sequence (P42866 whole entry): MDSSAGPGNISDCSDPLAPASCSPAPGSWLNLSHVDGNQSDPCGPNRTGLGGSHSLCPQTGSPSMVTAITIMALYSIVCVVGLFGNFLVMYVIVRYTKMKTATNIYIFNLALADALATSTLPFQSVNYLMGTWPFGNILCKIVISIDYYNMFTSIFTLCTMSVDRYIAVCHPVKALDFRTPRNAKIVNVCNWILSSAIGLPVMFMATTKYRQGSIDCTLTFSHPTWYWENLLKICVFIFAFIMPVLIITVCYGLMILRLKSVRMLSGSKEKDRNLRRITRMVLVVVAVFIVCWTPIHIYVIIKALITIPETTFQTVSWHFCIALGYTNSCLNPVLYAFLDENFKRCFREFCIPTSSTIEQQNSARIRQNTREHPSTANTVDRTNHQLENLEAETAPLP
Delta-type opioid receptor (Mus musculus, UniProt P32300), sequence (P32300 whole entry): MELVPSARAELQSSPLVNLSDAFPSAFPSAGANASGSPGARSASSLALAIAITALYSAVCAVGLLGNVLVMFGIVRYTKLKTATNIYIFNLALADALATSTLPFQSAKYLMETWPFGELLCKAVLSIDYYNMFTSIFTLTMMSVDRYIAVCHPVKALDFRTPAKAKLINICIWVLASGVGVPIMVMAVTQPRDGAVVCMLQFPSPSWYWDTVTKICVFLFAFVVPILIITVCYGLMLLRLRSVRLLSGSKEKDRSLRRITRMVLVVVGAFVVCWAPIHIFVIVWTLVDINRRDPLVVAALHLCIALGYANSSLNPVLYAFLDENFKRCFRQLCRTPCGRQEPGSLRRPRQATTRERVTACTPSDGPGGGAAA
T3 sequence (P35372 whole entry): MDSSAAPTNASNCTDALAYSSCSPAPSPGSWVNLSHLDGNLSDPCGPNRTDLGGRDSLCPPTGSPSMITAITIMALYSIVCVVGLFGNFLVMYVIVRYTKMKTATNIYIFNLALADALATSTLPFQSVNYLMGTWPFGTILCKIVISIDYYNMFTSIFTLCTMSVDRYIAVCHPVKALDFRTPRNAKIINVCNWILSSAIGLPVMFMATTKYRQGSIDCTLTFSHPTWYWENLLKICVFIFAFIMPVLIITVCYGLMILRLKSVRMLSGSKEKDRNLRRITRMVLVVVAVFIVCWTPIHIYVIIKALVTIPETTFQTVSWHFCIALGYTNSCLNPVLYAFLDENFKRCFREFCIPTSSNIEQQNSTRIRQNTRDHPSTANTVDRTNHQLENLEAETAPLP
T1 sequence (P41145 whole entry): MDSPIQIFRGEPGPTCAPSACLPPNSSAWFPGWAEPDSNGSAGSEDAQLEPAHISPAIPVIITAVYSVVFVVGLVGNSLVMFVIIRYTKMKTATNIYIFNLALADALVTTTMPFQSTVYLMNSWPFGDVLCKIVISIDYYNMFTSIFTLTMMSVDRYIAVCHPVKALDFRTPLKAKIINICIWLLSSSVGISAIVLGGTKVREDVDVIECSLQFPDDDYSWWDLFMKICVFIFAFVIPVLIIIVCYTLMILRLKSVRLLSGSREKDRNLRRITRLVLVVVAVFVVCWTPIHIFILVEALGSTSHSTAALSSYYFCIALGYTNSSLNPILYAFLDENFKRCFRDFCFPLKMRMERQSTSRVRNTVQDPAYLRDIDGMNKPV
T2 sequence (P41143 whole entry): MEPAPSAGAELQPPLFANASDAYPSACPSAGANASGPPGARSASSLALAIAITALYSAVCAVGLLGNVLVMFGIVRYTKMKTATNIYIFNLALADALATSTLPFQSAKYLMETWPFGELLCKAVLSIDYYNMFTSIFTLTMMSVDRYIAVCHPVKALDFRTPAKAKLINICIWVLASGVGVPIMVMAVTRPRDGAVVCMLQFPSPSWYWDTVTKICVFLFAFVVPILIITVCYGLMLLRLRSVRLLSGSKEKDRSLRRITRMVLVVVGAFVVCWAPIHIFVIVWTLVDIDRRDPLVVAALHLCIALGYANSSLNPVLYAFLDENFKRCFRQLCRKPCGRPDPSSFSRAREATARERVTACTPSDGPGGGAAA

O=C(c1ccccc1)N1C[C@H]2OC34CCC1C2C31CCN(CCc2ccccc2)C4Cc2ccc(O)cc21 (some centres not stated)
Emax [1]: 56%
Emax [2]: 100%
Ki (Mu-type opioid receptor [3]): 0.548 nM
EC50 [4]: 404 nM
Ratio Ki (Mus musculus): 1.2
EC50 (Mu-type opioid receptor [5]): 5.3 nM
Emax (Mu-type opioid receptor [6]): 109%
Ki [7]: 34.1 nM
Ratio Ki [8]: 74
Ki [9]: 0.458 nM
EC50 [10]: 0.61 nM

COCCCN1CC[C@]23Cc4nc5ccccc5cc4C[C@@]2(O)[C@H]1Cc1ccc(O)cc13
Emax [2]: 95%
Emax (Mu-type opioid receptor [11]): 25%
Emax [12]: 14%
ED50 [10]: 0.46 nM

COCCCN1CCC23c4cc(O)ccc4CC1C21CCC2C3[C@@H](CN2C(=O)c2ccccc2)O1 (some centres not stated)
Emax [2]: 120%
Ki (Mu-type opioid receptor [3]): 3.94 nM
Ratio Ki (Mus musculus): 11
EC50 (Mu-type opioid receptor [5]): 22 nM
Emax [12]: 23%
Emax (Mu-type opioid receptor [6]): 55%
Ki [7]: 20.3 nM
Ratio Ki [8]: 55
Ki [9]: 0.368 nM
EC50 [10]: 1.4 nM

CN1CCC23c4cc(O)ccc4CC1C21CCC2C3[C@@H](CN2C(=O)c2ccccc2)O1 (some centres not stated)
Emax [1]: 96%
Emax [2]: 94%
Ki (Mu-type opioid receptor [3]): 0.383 nM
EC50 [4]: 50 nM
Ratio Ki (Mus musculus): 1.3
EC50 (Mu-type opioid receptor [5]): 5.9 nM
Emax (Mu-type opioid receptor [6]): 103%
Ki [7]: 31.3 nM
Ratio Ki [8]: 104
Ki [9]: 0.301 nM
EC50 [10]: 0.43 nM

CC(C)CN1CCC23c4cc(O)ccc4CC1C21CCC2C3[C@@H](CN2C(=O)c2ccccc2)O1 (some centres not stated)
Emax [1]: 19%
Emax [2]: 99%
Emax (Mu-type opioid receptor [11]): 15%
Ki (Mu-type opioid receptor [3]): 4.48 nM
EC50 [4]: 98 nM
Ratio Ki (Mus musculus): 5.9
Ki [7]: 6.25 nM
Ratio Ki [8]: 8.2
Ki [9]: 0.76 nM
EC50 [10]: 3 nM

O=C(c1ccccc1)N1C[C@H]2OC34CCC1C2C31CCN(CC2CC2)C4Cc2ccc(O)cc21 (some centres not stated)
Emax [2]: 96%
Emax (Mu-type opioid receptor [11]): 3.9%
Ki (Mu-type opioid receptor [3]): 0.325 nM
Ki [13]: 0.154 nM
Ki [14]: 1.05 nM
Ratio Ki (Mus musculus): 1.2
Ki (Mu-type opioid receptor [15]): 0.627 nM
Emax [12]: 2.9%
Ki [7]: 1.21 nM
Ratio Ki [8]: 4.4
Ki [9]: 0.274 nM
EC50 [10]: 0.54 nM

Oc1ccc2c(c1)C13CCN(CC4CC4)C(C2)C12CCC1C3[C@@H](CN1Cc1ccccc1)O2 (some centres not stated)
Emax [2]: 79%
Emax (Mu-type opioid receptor [11]): 4.2%
Ki [13]: 0.501 nM
Ki [14]: 1.38 nM
Ki (Mu-type opioid receptor [15]): 1.56 nM
Emax [12]: 12%
EC50 [10]: 0.67 nM

O=S(=O)(c1ccccc1)N1C[C@H]2OC34CCC1C2C31CCN(CC2CC2)C4Cc2ccc(O)cc21 (some centres not stated)
Emax [2]: 66%
Ki [13]: 0.221 nM
Ki [14]: 0.658 nM
Ki (Mu-type opioid receptor [15]): 0.308 nM
EC50 (Mu-type opioid receptor [5]): 2.5 nM
Emax [12]: 19%
Emax (Mu-type opioid receptor [6]): 54%
EC50 [10]: 1.2 nM

C=CCN1CCC23c4cc(O)ccc4CC1C21CCC2C3[C@@H](CN2C(=O)c2ccccc2)O1 (some centres not stated)
Emax [2]: 73%
Emax (Mu-type opioid receptor [11]): 2.2%
Ki (Mu-type opioid receptor [3]): 0.833 nM
Ratio Ki (Mus musculus): 7.6
Emax [12]: 4.2%
Ki [7]: 2.54 nM
Ratio Ki [8]: 23
Ki [9]: 0.109 nM
EC50 [10]: 0.43 nM
